The values that follow come from ChEMBL document CHEMBL1201862, “PubChem BioAssay data set” (2004).

Each structure is given as a SMILES string.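 Method: 48-hour compound exposure of cells in 96-well plates, five concentrations, linear interpolation of endpoints. GI50: concentration for 50% inhibition of growth.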 Calls of active or inactive are those of the source. No stated cut-off is given here; in the data, active = GI50 up to about 1.1 µM and inactive = higher.

The term GI50 denotes the concentration that inhibits growth by half.

Common to all, as to assay: DTP human tumour cell line panel, 48 h
The subject of assay [1] is HCT-116.
For assay [2], the system named is UACC-62.
The subject of assay [3] is MCF7.
For assay [4], the system named is CAKI-1.
Assay [5] deals with SNB-75.
Assay [6] deals with A549.
For assay [7], the system named is OVCAR-8.
The subject of assay [8] is LOX IMVI.
For assay [9], the system named is SR.
Assay [10] concerns ACHN.
Assay [11] deals with MOLT-4.
For assay [12], the system named is SK-MEL-2.
The test system of assay [13] is CCRF-CEM.
Assay [14] deals with MDA-MB-231.
The test system of assay [15] is T47D.
Assay [16] relates to NCI-H522.
For assay [17], the system named is NCI-H23.
Assay [18] has as its system Malme-3M.
The subject of assay [19] is SK-OV-3.
Assay [20] has as its system KM12.

Turning to `CC(=O)c1cc2c(Br)cccc2oc1=O`, the GI50 is 66.7 µM (inactive) in assay [1]; > 100 µM (inactive) in [2]; > 100 µM (inactive) in [3]; > 100 µM (inactive) in assay [4]; > 100 µM (inactive) in [5]; > 100 µM (inactive) in [6]. Moreover, the GI50 in assay [7] was > 100 µM (inactive); in assay [8] it was > 100 µM (inactive); in assay [9], 46.8 µM (inactive); in [10] it was > 100 µM (inactive); in assay [11] it was > 100 µM (inactive); in assay [12], > 100 µM (inactive). For the same molecule, the GI50 in assay [13], in assay [14], in [15], in assay [16], in assay [17] and in assay [18] was > 100 µM (inactive) throughout.
For the molecule `C=C(C)[C@@]1(O[Si](C)(C)C)CCCC[C@@H]1CC(Sc1ccccc1)Sc1ccccc1`, the GI50 in [19] was 20 µM (inactive); in [2], 13.2 µM (inactive); in [3], 12 µM (inactive); in [4], 12.9 µM (inactive); in assay [5], 12.1 µM (inactive); in assay [6], 10.1 µM (inactive). For the same molecule, the GI50 in [7] is 16.1 µM (inactive); in [20], 10.6 µM (inactive); in assay [8], 17.9 µM (inactive); in assay [9], 11.1 µM (inactive); in [10] it was 15.4 µM (inactive); in assay [11], 4.89 µM (inactive). For the same molecule, the GI50 in [12] was 15 µM (inactive); in assay [13] it was 14.4 µM (inactive); in assay [14], 16.8 µM (inactive); in assay [15], 4.26 µM (inactive); in assay [16], 7.83 µM (inactive); in assay [17] it was 13.4 µM (inactive). The GI50 in assay [18] was 12.1 µM (inactive).
For the molecule `O=C1C=CC(=O)c2cc(Sc3ccccc3)c(=O)ccc21`, the GI50 in [1] is 18 µM (inactive); in assay [19], 26 µM (inactive); in assay [2] it was 15.5 µM (inactive); in assay [3] it was 5.83 µM (inactive); in assay [5] it was 8.2 µM (inactive); in assay [6], 20.1 µM (inactive). Further, the GI50 in assay [7] is 15.7 µM (inactive); in [20], 18.1 µM (inactive); in assay [8], 13.1 µM (inactive); in [9] it was 1.58 µM (inactive); in assay [10] it was 9.89 µM (inactive); in [11], 2.24 µM (inactive). In addition, the GI50 is 13.6 µM (inactive) in assay [12]; 1.76 µM (inactive) in assay [13]; 17.9 µM (inactive) in assay [14]; 3.41 µM (inactive) in assay [15]; 2.32 µM (inactive) in assay [16]; 19.2 µM (inactive) in [17]. Moreover, in assay [18], the GI50 was 12.7 µM (inactive).
As to `COC(=O)NN=C(c1ccc(Cl)cc1)c1ccc(Cl)cc1`, the GI50 in [1] is > 100 µM (inactive); in assay [19], > 100 µM (inactive); in assay [2] it was > 100 µM (inactive); in assay [3], > 100 µM (inactive); in assay [4], > 100 µM (inactive); in assay [5], 87.9 µM (inactive). In addition, the GI50 in assay [6] was 71.1 µM (inactive); in [7] it was > 100 µM (inactive); in [20], > 100 µM (inactive); in [8] it was > 100 µM (inactive); in [9] it was 94.2 µM (inactive); in assay [11], > 100 µM (inactive). The GI50 is > 100 µM (inactive) in [12]; 67.6 µM (inactive) in assay [13]; > 100 µM (inactive) in assay [14]; > 100 µM (inactive) in assay [15]; > 100 µM (inactive) in assay [16]; > 100 µM (inactive) in [17]. Also, the GI50 in assay [18] was > 100 µM (inactive).
On to `COc1cccc(NCC(=O)Nn2c(-c3ccccc3)nc3ccccc3c2=O)c1`, for which the GI50 in [1] was > 100 µM (inactive); in assay [19], > 100 µM (inactive); in assay [2], 63.4 µM (inactive); in assay [3], 52.2 µM (inactive); in assay [5] it was > 100 µM (inactive); in assay [6], > 100 µM (inactive). Besides, the GI50 in assay [7], in [20], in [8], in assay [9], in [10] and in [11] was > 100 µM (inactive) throughout. Besides, the GI50 was 82 µM (inactive) in assay [13]; > 100 µM (inactive) in assay [14]; > 100 µM (inactive) in [15]; > 100 µM (inactive) in assay [16]; > 100 µM (inactive) in assay [17]; > 100 µM (inactive) in assay [18].
With `O=C(O)Cn1ncn(NC(=O)Cc2ccccc2)c1=S`, the GI50 in [1], in assay [19], in [2], in [3], in assay [4] and in [5] was > 10 µM (inactive) throughout. In addition, the GI50 in assay [6], in [7], in assay [20], in assay [8], in assay [9] and in [10] was > 10 µM (inactive) throughout. In addition, the GI50 in assay [11], in assay [13], in assay [14], in [15], in assay [16] and in assay [17] was > 10 µM (inactive) in each case. For the same molecule, the GI50 in [18] is > 10 µM (inactive).
On to `C=CC1ON(Cc2ccccc2)CCc2cc(OC)c(OC)cc21` (stereo not given), for which the GI50 in assay [1] was 45.2 µM (inactive); in [19], 56.5 µM (inactive); in assay [2], 56.1 µM (inactive); in [3] it was > 100 µM (inactive); in [4] it was 70.5 µM (inactive); in [5] it was 72.4 µM (inactive). In addition, the GI50 in assay [6] is 44.2 µM (inactive); in [7] it was > 100 µM (inactive); in assay [20], 27 µM (inactive); in [8], 43.3 µM (inactive); in [9], 25.7 µM (inactive); in assay [10], > 100 µM (inactive). Moreover, the GI50 in [11] was 34.7 µM (inactive); in [13], 45.7 µM (inactive); in [14], 81.1 µM (inactive); in assay [15], 27.7 µM (inactive); in assay [16], 41.5 µM (inactive); in [17], 53.3 µM (inactive). For the same molecule, the GI50 in assay [18] was 19.2 µM (inactive).
Consider `N[C@@H]1CCN(c2c(F)cc3c(=O)c(C(=O)O)cn4c3c2Oc2cc3c(ccc5ccccc53)cc2-4)C1`, for which the GI50 was 1.64 µM (inactive) in [1]; 7.6 µM (inactive) in [2]; 3.13 µM (inactive) in assay [3]; 6.27 µM (inactive) in assay [4]; 2.89 µM (inactive) in [5]; 3.29 µM (inactive) in assay [6]. Besides, the GI50 in [7] is 1.7 µM (inactive); in assay [20], 5.32 µM (inactive); in [8], 2.34 µM (inactive); in assay [9] it was 0.659 µM (active); in assay [10] it was 1.54 µM (inactive); in assay [11], 0.515 µM (active). For the same molecule, the GI50 in assay [12] is 5.18 µM (inactive); in assay [13] it was 0.0482 µM (active); in assay [14], 4.56 µM (inactive); in [15] it was 4.56 µM (inactive); in assay [16], 3.85 µM (inactive); in [17], 3.06 µM (inactive). Further, the GI50 in assay [18] is 5.27 µM (inactive).
